Source: paper PMC11966747, “Next Generation Risk Assessment of Acute Neurotoxicity from Organophosphate Exposures Using the In Vitro–In Silico Derived Dietary Comparator Ratio” (Environmental Science & Technology, 2025)
Read-outs that look alike come from different tables or passages of the source.

Tests used:
erythrocyte AChE [1] = molecular target: T1, erythrocyte AChE (Homo sapiens, UniProt P22303); details: cited from earlier work; for reported or expected adverse health outcome: human, ref Table S2
[2] = QSAR-based prediction; ref Punt et al. 2022; Moerenhout et al. 2024; cited from earlier work
erythrocyte AChE [3] = molecular target: T1, erythrocyte AChE; assay: Exposure Activity Ratio (EAR) and Dietary Comparator Ratio (DCR) calculation; parameters: from tissue; host or cells: human whole peripheral blood (erythrocytes), K2EDTA anticoagulant; details: human
Experimental: The DCR value for an exposure scenario was calculated as the ratio of EARtest and EARcomparator (eq 1). The EARtest is scenario-specific and was defined with the IC50 of the tested organophosphate oxon for in vitro erythrocyte AChE inhibition and the PBK model-simulated CBmaxoxon at the defined exposure level (eq 2).
The DCR-based predictions were evaluated by comparing the obtained DCR results with actual knowledge of the adverse health effects reported for the respective exposure scenarios. Adverse effects cannot be ruled out for human exposure scenarios with a DCR result greater than 1, while exposure scenarios with a DCR result less than or equal to 1 are considered to raise no safety concern.[18]−[20] Once validated as an adequate predicting tool, the DCR approach was applied for evaluating the safety of exposure scenarios, for which no information on the resulting toxic outcomes was reported at the defined dose levels for humans.

[4] = 214 mg/kg BW (15 g) acute oral, person, ref Klemmer et al. 1978
[5] = 357 mg/kg BW (25 g) acute oral, person seven, ref Klemmer et al. 1978
[6] = 357 mg/kg BW (25 g) acute oral, person six, ref Klemmer et al. 1978
[7] = 643 mg/kg BW (45 g) acute oral, person, ref Klemmer et al. 1978

T1 sequence (P22303 32-617 isoform P22303-2 limits assumed): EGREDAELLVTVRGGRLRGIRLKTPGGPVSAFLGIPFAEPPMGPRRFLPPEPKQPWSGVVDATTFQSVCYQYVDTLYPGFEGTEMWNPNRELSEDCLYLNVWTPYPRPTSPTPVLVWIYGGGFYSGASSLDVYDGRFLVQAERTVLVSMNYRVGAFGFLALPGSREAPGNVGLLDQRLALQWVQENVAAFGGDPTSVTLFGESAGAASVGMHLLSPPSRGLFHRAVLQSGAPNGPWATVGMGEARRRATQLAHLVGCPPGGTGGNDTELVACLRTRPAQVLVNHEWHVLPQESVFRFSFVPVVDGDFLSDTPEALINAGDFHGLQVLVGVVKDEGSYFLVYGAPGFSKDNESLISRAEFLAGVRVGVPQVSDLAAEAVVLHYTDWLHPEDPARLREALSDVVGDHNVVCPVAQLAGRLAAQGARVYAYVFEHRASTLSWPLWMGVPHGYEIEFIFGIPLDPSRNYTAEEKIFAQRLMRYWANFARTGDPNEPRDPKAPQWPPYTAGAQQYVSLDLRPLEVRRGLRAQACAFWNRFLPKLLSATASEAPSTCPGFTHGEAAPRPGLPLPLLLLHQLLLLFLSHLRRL

CCOP(=S)(OCC)Oc1cc(C)nc(C(C)C)n1 [diazinon]
Reported erythrocyte AChE activity/inhibition (erythrocyte AChE [1]; 0.011 mg/kg BW single oral, 4 male and 1 female volunteers, ref Garfitt et al. 2002): No erythrocyte AChE inhibition | Reported erythrocyte AChE activity/inhibition (erythrocyte AChE [1]; 0.03 mg/kg BW single oral, 7 male volunteers, ref APVMA. 2011, US EPA. 2001 (original data of Boyeson. 2000)): No erythrocyte AChE inhibition | Reported erythrocyte AChE activity/inhibition (erythrocyte AChE [1]; 0.12 mg/kg BW single oral, 7 male volunteers, ref APVMA. 2011, US EPA. 2001 (original data of Boyeson. 2000)): No erythrocyte AChE inhibition | Reported erythrocyte AChE activity/inhibition (erythrocyte AChE [1]; 0.20 mg/kg BW single oral, 7 male volunteers, ref APVMA. 2011, US EPA. 2001 (original data of Boyeson. 2000)): No erythrocyte AChE inhibition | Reported erythrocyte AChE activity/inhibition (erythrocyte AChE [1]; 0.21 mg/kg BW single oral, 7 male volunteers, APVMA: significant inhibition, US EPA: limited, ref APVMA. 2011, US EPA. 2001 (original data of Boyeson. 2000)): Conflicting opinions | Reported concomitant effects (signs and symptoms) (erythrocyte AChE [1]; 0.21 mg/kg BW single oral, 7 male volunteers, might occur, ref APVMA. 2011, US EPA. 2001 (original data of Boyeson. 2000)): Mild clinical signs or symptoms | Reported erythrocyte AChE activity/inhibition (erythrocyte AChE [1]; 0.30 mg/kg BW single oral, 1 volunteer, APVMA: inhibition greater than at 0.20 mg/kg BW, US EPA: no inhibition, ref APVMA. 2011, US EPA. 2001 (original data of Boyeson. 2000)): Conflicting opinions | Reported concomitant effects (signs and symptoms) (erythrocyte AChE [1]; 0.30 mg/kg BW single oral, 1 volunteer, might occur, ref APVMA. 2011, US EPA. 2001 (original data of Boyeson. 2000)): Mild clinical signs or symptoms | Reported concomitant effects (signs and symptoms) (erythrocyte AChE [1]; 200 mg/kg BW (14 - 57 g) acute oral, 14 males and 11 females, ref APVMA. 2011 (original data of Mutalik et al. 1962)): Toxic symptoms occurred | Reported concomitant effects (signs and symptoms) (erythrocyte AChE [1]; [4]): toxic symptoms occurred | Reported erythrocyte AChE activity/inhibition (erythrocyte AChE [1]; [4]): Significantly decreased | Reported concomitant effects (signs and symptoms) (erythrocyte AChE [1]; 293 mg/kg BW (22 g) acute oral, person, ref Poklis et al. 1980): Died | Reported concomitant effects (signs and symptoms) (erythrocyte AChE [1]; 323 mg/kg BW (22.6 g) acute oral, person, ref APVMA. 2011 (original data of Banerjee. 1967)): Toxic symptoms occurred | Reported concomitant effects (signs and symptoms) (erythrocyte AChE [1]; [5]): toxic symptoms occurred | Reported erythrocyte AChE activity/inhibition (erythrocyte AChE [1]; [5]): Significantly decreased | Reported concomitant effects (signs and symptoms) (erythrocyte AChE [1]; [6]): toxic symptoms occurred | Reported erythrocyte AChE activity/inhibition (erythrocyte AChE [1]; [6]): Significantly decreased | Reported concomitant effects (signs and symptoms) (erythrocyte AChE [1]; 429 mg/kg BW (30 g) acute oral, person, ref Martinez-Chuecos et al. 1992): Toxic symptoms occurred | Reported concomitant effects (signs and symptoms) (erythrocyte AChE [1]; [7]): toxic symptoms occurred | Reported erythrocyte AChE activity/inhibition (erythrocyte AChE [1]; [7]): Significantly decreased | reported or expected adverse health outcome (erythrocyte AChE [1]; single oral 0.011 mg/kg BW, 0.011 mg/kg): negative | reported or expected adverse health outcome (erythrocyte AChE [1]; single oral 0.011 mg/kg BW, listed as Diazinon, 0.011 mg/kg): No | reported or expected adverse health outcome (erythrocyte AChE [1]; single oral 0.03 mg/kg BW, 0.03 mg/kg): negative | reported or expected adverse health outcome (erythrocyte AChE [1]; single oral 0.03 mg/kg BW, listed as Diazinon, 0.03 mg/kg): No | reported or expected adverse health outcome (erythrocyte AChE [1]; single oral 0.12 mg/kg BW, 0.12 mg/kg): negative | reported or expected adverse health outcome (erythrocyte AChE [1]; single oral 0.12 mg/kg BW, listed as Diazinon, 0.12 mg/kg): No | reported or expected adverse health outcome (erythrocyte AChE [1]; single oral 0.20 mg/kg BW, 0.2 mg/kg): negative | reported or expected adverse health outcome (erythrocyte AChE [1]; single oral 0.20 mg/kg BW, listed as Diazinon, 0.2 mg/kg): No | reported or expected adverse health outcome (erythrocyte AChE [1]; single oral 200 mg/kg BW, 200 mg/kg): positive | reported or expected adverse health outcome (erythrocyte AChE [1]; single oral 200 mg/kg BW, listed as Diazinon, 200 mg/kg): Yes | reported or expected adverse health outcome (erythrocyte AChE [1]; single oral 214 mg/kg BW, 214 mg/kg): positive | reported or expected adverse health outcome (erythrocyte AChE [1]; single oral 214 mg/kg BW, listed as Diazinon, 214 mg/kg): Yes | reported or expected adverse health outcome (erythrocyte AChE [1]; single oral 293 mg/kg BW, 293 mg/kg): positive | reported or expected adverse health outcome (erythrocyte AChE [1]; single oral 293 mg/kg BW, listed as Diazinon, 293 mg/kg): Yes | reported or expected adverse health outcome (erythrocyte AChE [1]; single oral 323 mg/kg BW, 323 mg/kg): positive | reported or expected adverse health outcome (erythrocyte AChE [1]; single oral 323 mg/kg BW, listed as Diazinon, 323 mg/kg): Yes | reported or expected adverse health outcome (erythrocyte AChE [1]; single oral 357 mg/kg BW, 357 mg/kg): positive | reported or expected adverse health outcome (erythrocyte AChE [1]; single oral 357 mg/kg BW, listed as Diazinon, 357 mg/kg): Yes | reported or expected adverse health outcome (erythrocyte AChE [1]; single oral 429 mg/kg BW, 429 mg/kg): positive | reported or expected adverse health outcome (erythrocyte AChE [1]; single oral 429 mg/kg BW, listed as Diazinon, 429 mg/kg): Yes | reported or expected adverse health outcome (erythrocyte AChE [1]; single oral 643 mg/kg BW, 643 mg/kg): positive | reported or expected adverse health outcome (erythrocyte AChE [1]; single oral 643 mg/kg BW, listed as Diazinon, 643 mg/kg): Yes | Oral absorption rate constant [2]: 0.73 h⁻¹ | calculated DCR value (erythrocyte AChE [3]; single oral 0.011 mg/kg BW): 2.1 × 10^–4 | calculated EARtest value (erythrocyte AChE [3]; single oral 0.011 mg/kg BW): 8.3 × 10^–6 | calculated DCR value (erythrocyte AChE [3]; single oral 0.03 mg/kg BW): 5.7 × 10^–4 | calculated EARtest value (erythrocyte AChE [3]; single oral 0.03 mg/kg BW): 2.3 × 10^–5 | calculated DCR value (erythrocyte AChE [3]; single oral 0.12 mg/kg BW): 2.3 × 10^–3 | calculated EARtest value (erythrocyte AChE [3]; single oral 0.12 mg/kg BW): 9.1 × 10^–5 | calculated DCR value (erythrocyte AChE [3]; single oral 0.20 mg/kg BW): 3.8 × 10^–3 | calculated EARtest value (erythrocyte AChE [3]; single oral 0.20 mg/kg BW): 1.5 × 10^–4 | calculated EARtest value (erythrocyte AChE [3]; single oral 0.21 mg/kg BW): 1.6 × 10^–4 | calculated EARtest value (erythrocyte AChE [3]; single oral 0.30 mg/kg BW): 2.3 × 10^–4 | calculated DCR value (erythrocyte AChE [3]; single oral 200 mg/kg BW): 2.1 | calculated EARtest value (erythrocyte AChE [3]; single oral 200 mg/kg BW): 0.084 | calculated DCR value (erythrocyte AChE [3]; single oral 214 mg/kg BW): 2.2 | calculated EARtest value (erythrocyte AChE [3]; single oral 214 mg/kg BW): 0.085 | calculated DCR value (erythrocyte AChE [3]; single oral 293 mg/kg BW): 2.3 | calculated EARtest value (erythrocyte AChE [3]; single oral 293 mg/kg BW): 0.089 | calculated DCR value (erythrocyte AChE [3]; single oral 323 mg/kg BW): 2.3 | calculated EARtest value (erythrocyte AChE [3]; single oral 323 mg/kg BW): 0.090 | calculated DCR value (erythrocyte AChE [3]; single oral 357 mg/kg BW): 2.3 | calculated EARtest value (erythrocyte AChE [3]; single oral 357 mg/kg BW): 0.091 | calculated DCR value (erythrocyte AChE [3]; single oral 429 mg/kg BW): 2.3 | calculated EARtest value (erythrocyte AChE [3]; single oral 429 mg/kg BW): 0.093 | calculated DCR value (erythrocyte AChE [3]; single oral 643 mg/kg BW): 2.4 | calculated EARtest value (erythrocyte AChE [3]; single oral 643 mg/kg BW): 0.095
